# Results reported in patent US8017782B2, “4-phenyl-5-oxo-1,4,5,6,7,8-hexahydroquinoline derivatives as medicaments for the treatment of infertility” (N.V. Organon, priority 2005, dated 2011).
# pEC50: −log10 of the molar value.
# Target: T1, human FSH receptor (Homo sapiens, UniProt P23945)
# T1 construct: expressed in transfected cells; host or cells: Chinese Hamster Ovary (CHO) cells
# T1 sequence (P23945 18-695): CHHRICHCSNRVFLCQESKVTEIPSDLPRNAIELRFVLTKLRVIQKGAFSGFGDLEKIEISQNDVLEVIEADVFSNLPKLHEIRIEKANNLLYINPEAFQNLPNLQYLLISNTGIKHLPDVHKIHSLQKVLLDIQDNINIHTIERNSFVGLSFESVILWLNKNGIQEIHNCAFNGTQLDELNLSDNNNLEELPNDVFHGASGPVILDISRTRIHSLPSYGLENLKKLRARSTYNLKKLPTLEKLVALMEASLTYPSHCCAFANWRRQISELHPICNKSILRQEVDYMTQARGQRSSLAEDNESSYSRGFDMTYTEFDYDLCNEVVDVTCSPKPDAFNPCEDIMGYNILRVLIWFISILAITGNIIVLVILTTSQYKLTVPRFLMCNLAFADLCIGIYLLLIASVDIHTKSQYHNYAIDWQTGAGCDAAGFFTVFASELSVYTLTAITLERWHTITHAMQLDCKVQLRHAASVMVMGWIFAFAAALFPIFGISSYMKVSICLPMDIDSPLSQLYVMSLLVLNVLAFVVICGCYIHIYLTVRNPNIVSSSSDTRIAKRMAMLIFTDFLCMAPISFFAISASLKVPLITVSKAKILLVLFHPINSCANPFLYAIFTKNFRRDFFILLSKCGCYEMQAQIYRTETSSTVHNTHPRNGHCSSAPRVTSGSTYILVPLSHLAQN
# Assay: Agonistic activity at the human FSH receptor expressed in CHO cells (CRE-luciferase reporter)
# Type: cell-based
# Details: CHO cells stably transfected with human FSH receptor and CRE/luciferase reporter; tested 0.1 nM to 10 μM; read-out: EC50 (concentration of test compound causing half-maximal (50%) luciferase stimulation)
# Description: Agonistic Activity of Compounds at the Human FSH Receptor Expressed in CHO Cells
# Agonist activity of the compounds at the human FSH receptor was tested in Chinese Hamster Ovary (CHO) cells stably transfected with the human FSH receptor and cotransfected with a cAMP responsive element (CRE)/promotor directing the expression of a firefly luciferase reporter gene. Binding of the compound to the Gs-coupled FSH receptor will result in an increase of cAMP, which in turn will induce an increased transactivation of the luciferase reporter construct. The luciferase activity was quantified using a luminescence counter. The compounds were tested in the concentration range of 0.1 nM to 10 μM. This assay was used to determine the EC50 (concentration of test compound causing half-maximal (50%) luciferase stimulation) and efficacy of the compounds compared to recombinant human FSH. For this, the software program XLfit (Excel version 2.0, built 30, ID Business Solutions Limited) was used.
row,pEC50,SMILES
1,> 8.00,"CCCC1CC(=O)C2=C(C1)NC(C)=C(C#N)C2c1cc(Br)c(OCCOCCO)c(OC(C)C)c1 (centres unmarked) [Example 24, 4-{3-Bromo-4-[2-(2-hydroxy-ethoxy)-ethoxy]-5-isopropoxy-phenyl}-2-methyl-5-oxo-7-propyl-1,4,5,6,7,8-hexahydro-quinoline-3-carbonitrile]"
2,> 8.00,"CCCC1CC(=O)C2=C(C1)NC(C)=C(C#N)C2c1cc(Br)c(OCCOCCOC)c(S(=O)(=O)N(C)C)c1 (centres unmarked) [Example 30, 3-Bromo-5-(3-cyano-2-methyl-5-oxo-7-propyl-1,4,5,6,7,8-hexahydro-quinolin-4-yl)-2-[2-(2-methoxy-ethoxy)-ethoxy]-N,N-dimethyl-benzenesulfonamide]"
3,> 8.00,"CCCC1CC(=O)C2=C(C1)NC(C)=C(C#N)C2c1cc(Br)c(OCCOC)c(S(=O)(=O)N(C)C)c1 (centres unmarked) [Example 29, 3-Bromo-5-(3-cyano-2-methyl-5-oxo-7-propyl-1,4,5,6,7,8-hexahydro-quinolin-4-yl)-2-(2-methoxy-ethoxy)-N,N-dimethyl-benzenesulfonamide]"
4,> 8.00,"CCCC1CC(=O)C2=C(C1)NC(C)=C(C#N)C2c1cc(Br)c(OCCCCNC(=O)C(C)C)c(OCC)c1 (centres unmarked) [Example 13, N-{4-[2-Bromo-4-(3-cyano-2-methyl-5-oxo-7-propyl-1,4,5,6,7,8-hexahydro-quinolin-4-yl)-6-ethoxy-phenoxy]-butyl}-isobutyramide]"
5,> 8.00,"CCCC1CC(=O)C2=C(C1)NC(C)=C(C#N)C2c1cc(Br)c(OCCCCCNC(=O)COC)c(OCC)c1 (centres unmarked) [Example 17, N-{5-[2-Bromo-4-(3-cyano-2-methyl-5-oxo-7-propyl-1,4,5,6,7,8-hexahydro-quinolin-4-yl)-6-ethoxy-phenoxy]-pentyl}-2-methoxy-acetamide]"
6,> 8.00,"CCCC1CC(=O)C2=C(C1)NC(C)=C(C#N)C2c1cc(Br)c(NCCOC)c(S(=O)(=O)N2CCOCC2)c1 (centres unmarked) [Example 31, 4-[3-Bromo-4-(2-methoxy-ethylamino)-5-(morpholine-4-sulfonyl)-phenyl]-2-methyl-5-oxo-7-propyl-1,4,5,6,7,8-hexahydro-quinoline-3-carbonitrile]"
7,> 8.00,"CCCC1CC(=O)C2=C(C1)NC(C)=C(C#N)C2c1cc(Br)c(NCCOC)c(S(=O)(=O)N2CCCC2)c1 (centres unmarked) [Example 32, 4-[3-Bromo-4-(2-methoxy-ethylamino)-5-(pyrrolidine-1-sulfonyl)-phenyl]-2-methyl-5-oxo-7-propyl-1,4,5,6,7,8-hexahydro-quinoline-3-carbonitrile]"
8,> 8.00,"CCCC1CC(=O)C2=C(C1)NC(C)=C(C#N)C2c1cc(Br)c(OCCOCCNC(=O)C2CC2)c(OCC)c1 (centres unmarked) [Example 22, Cyclopropanecarboxylic acid (2-{2-[2-bromo-4-(3-cyano-2-methyl-5-oxo-7-propyl-1,4,5,6,7,8-hexahydro-quinolin-4-yl)-6-ethoxy-phenoxy]-ethoxy}-ethyl)-amide]"
9,> 8.00,"CCCC1CC(=O)C2=C(C1)NC(C)=C(C#N)C2c1cc(Br)c(OCC=CCNC(=O)OCC)c(OCC)c1 (centres unmarked) [Example 6, {4-[2-Bromo-4-(3-cyano-2-methyl-5-oxo-7-propyl-1,4,5,6,7,8-hexahydro-quinolin-4-yl)-6-ethoxy-phenoxy]-but-2-enyl}-carbamic acid ethyl ester]"
10,> 8.00,"CCCC1CC(=O)C2=C(C1)NC(C)=C(C#N)C2c1cc(Br)c(OCC=CCNC(=O)C2CC2)c(OCC)c1 (centres unmarked) [Example 3, Cyclopropanecarboxylic acid {4-[2-bromo-4-(3-cyano-2-methyl-5-oxo-7-propyl-1,4,5,6,7,8-hexahydro-quinolin-4-yl)-6-ethoxy-phenoxy]-but-2-enyl}-amide]"
11,> 8.00,"CCCC1CC(=O)C2=C(C1)NC(C)=C(C#N)C2c1cc(Br)c(OCCO)c(S(=O)(=O)N(C)C)c1 (centres unmarked) [Example 26, 3-Bromo-5-(3-cyano-2-methyl-5-oxo-7-propyl-1,4,5,6,7,8-hexahydro-quinolin-4-yl)-2-(2-hydroxy-ethoxy)-N,N-dimethyl-benzenesulfonamide]"
12,> 8.00,"CCCC1CC(=O)C2=C(C1)NC(C)=C(C#N)C2c1cc(Br)c(OCC=CCO)c(OCC)c1 (centres unmarked) [Example 28, 4-[3-Bromo-5-ethoxy-4-(4-hydroxy-but-2-enyloxy)-phenyl]-2-methyl-5-oxo-7-propyl-1,4,5,6,7,8-hexahydro-quinoline-3-carbonitrile]"
13,> 8.00,"CCCC1CC(=O)C2=C(C1)NC(C)=C(C#N)C2c1cc(Br)c(OCCOCCO)c(S(=O)(=O)N(C)C)c1 (centres unmarked) [Example 23, 3-Bromo-5-(3-cyano-2-methyl-5-oxo-7-propyl-1,4,5,6,7,8-hexahydro-quinolin-4-yl)-2-[2-(2-hydroxy-ethoxy)-ethoxy]-N,N-dimethyl-benzenesulfonamide]"
14,> 8.00,"CCCC1CC(=O)C2=C(C1)NC(C)=C(C#N)C2c1cc(Br)c(OCC=CCNC(=O)C(C)C)c(OCC)c1 (centres unmarked) [Example 2, N-{4-[2-Bromo-4-(3-cyano-2-methyl-5-oxo-7-propyl-1,4,5,6,7,8-hexahydro-quinolin-4-yl)-6-ethoxy-phenoxy]-but-2-enyl}-isobutyramide]"
15,> 8.00,"CCCC1CC(=O)C2=C(C1)NC(C)=C(C#N)C2c1cc(Br)c(OCCCCCCNS(=O)(=O)C(C)C)c(OCC)c1 (centres unmarked) [Example 20, Propane-2-sulfonic acid {6-[2-bromo-4-(3-cyano-2-methyl-5-oxo-7-propyl-1,4,5,6,7,8-hexahydro-quinolin-4-yl)-6-ethoxy-phenoxy]-hexyl}-amide]"
16,> 8.00,"CCCC1CC(=O)C2=C(C1)NC(C)=C(C#N)C2c1cc(Br)c(OCC=CCNC(=O)COC)c(OCC)c1 (centres unmarked) [Example 5, N-{4-[2-Bromo-4-(3-cyano-2-methyl-5-oxo-7-propyl-1,4,5,6,7,8-hexahydro-quinolin-4-yl)-6-ethoxy-phenoxy]-but-2-enyl}-2-methoxy-acetamide]"
17,> 8.00,"CCCC1CC(=O)C2=C(C1)NC(C)=C(C#N)C2c1cc(Br)c(OCC=CC(=O)NCc2ccccn2)c(OCC)c1 (centres unmarked) [Example 12, 4-[2-Bromo-4-(3-cyano-2-methyl-5-oxo-7-propyl-1,4,5,6,7,8-hexahydro-quinolin-4-yl)-6-ethoxy-phenoxy]-but-2-enoic acid (pyridin-2-ylmethyl)-amide]"
